Test systems include SK-MEL-28 melanoma; SK-OV-3 ovarian; TK-10 renal; NCI-H226 lung; DU-145 prostate; NCI-H460 lung; A498 renal; SK-MEL-5 melanoma; SNB-75 CNS; UO-31 renal.
Holding throughout (assay): inhibition of tumour cell growth, NCI panel, 48 h

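Exposure lasted 48 hours, with cells grown in 96-well plates and compounds tested at five concentrations. At the GI50, growth is halved. TGI: total growth inhibition.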

Consider `COc1cc([N+](=O)[O-])c2ncccc2c1[N+](=O)[O-]`, for which the GI50 was 13.2 µM with SK-MEL-28 melanoma; 12.6 µM in the assay with SK-OV-3 ovarian; 7.04 µM in the assay on TK-10 renal; 15.3 µM in the assay with NCI-H226 lung; 4.39 µM with DU-145 prostate; 6.07 µM with NCI-H460 lung. Moreover, the GI50 is 12.3 µM in the assay on A498 renal, 12.6 µM in the assay on SK-MEL-5 melanoma and 3.77 µM in the assay with SNB-75 CNS. Also, the TGI was determined as 27.1 µM in the assay with SK-MEL-28 melanoma; 25.4 µM in the assay with SK-OV-3 ovarian; 19.6 µM with TK-10 renal; 31.5 µM in the assay on NCI-H226 lung; 15.8 µM in the assay with DU-145 prostate; 24.6 µM in the assay on NCI-H460 lung. Besides, the results for the TGI with A498 renal, in the assay with SK-MEL-5 melanoma and in the assay with SNB-75 CNS were 32 µM, 25.3 µM and 18 µM, respectively.

On to `CC1=NN(C(=O)c2ccccc2O)C(=O)/C1=C/c1cccc([N+](=O)[O-])c1`, for which the TGI with SK-MEL-28 melanoma, in the assay on SK-OV-3 ovarian, with TK-10 renal, with NCI-H226 lung, with DU-145 prostate and with NCI-H460 lung was more than 100 µM throughout. For the same compound, the TGI in the assay on A498 renal was 0.801 µM; in the assay on SK-MEL-5 melanoma, more than 100 µM; with SNB-75 CNS, more than 100 µM.

In the case of `Nc1[nH]c(=O)ncc1CO`, the GI50 in the assay on SK-MEL-28 melanoma, in the assay with SK-OV-3 ovarian, in the assay with TK-10 renal, in the assay on NCI-H226 lung, with UO-31 renal and with DU-145 prostate was more than 100 µM each time. In addition, the GI50 in the assay with NCI-H460 lung, with A498 renal, in the assay on SK-MEL-5 melanoma and with SNB-75 CNS was more than 100 µM throughout. The TGI in the assay with SK-MEL-28 melanoma, with SK-OV-3 ovarian, in the assay on TK-10 renal, with NCI-H226 lung, with UO-31 renal and in the assay with DU-145 prostate was more than 100 µM throughout. The TGI in the assay with NCI-H460 lung, in the assay with A498 renal, with SK-MEL-5 melanoma and in the assay on SNB-75 CNS was more than 100 µM throughout.

In the case of `COc1ccc(C(O)CC(O)(C(F)(F)F)C(F)(F)F)cc1` (configuration not stated), the TGI with SK-MEL-28 melanoma, in the assay with SK-OV-3 ovarian, in the assay with TK-10 renal, with NCI-H226 lung, with UO-31 renal and in the assay on DU-145 prostate was more than 100 µM throughout. The TGI was determined as 60.6 µM in the assay on NCI-H460 lung, 64.1 µM in the assay with A498 renal, 36.2 µM with SK-MEL-5 melanoma and 34.3 µM with SNB-75 CNS.

In the case of `CC(NC(=O)c1ccccc1)(C(=O)O)C(=O)O`, the TGI in the assay with SK-MEL-28 melanoma, with SK-OV-3 ovarian, with TK-10 renal, in the assay on NCI-H226 lung, with UO-31 renal and in the assay on DU-145 prostate was more than 100 µM each time. Further, the TGI in the assay with NCI-H460 lung, with A498 renal, with SK-MEL-5 melanoma and with SNB-75 CNS was more than 100 µM each time.

Turning to `C=[CH][Sn]([CH]=C)([O]c1cccc2cccnc12)[O]c1cccc2cccnc12`, the GI50 in the assay on SK-MEL-28 melanoma was 4.03 µM; with SK-OV-3 ovarian, 14.5 µM; in the assay with TK-10 renal, 9.46 µM; in the assay with NCI-H226 lung, 2.95 µM; in the assay with UO-31 renal, 3.25 µM; in the assay on DU-145 prostate, 7.29 µM. Also, the GI50 with NCI-H460 lung was 3.11 µM; in the assay with A498 renal it was 5.88 µM; in the assay on SK-MEL-5 melanoma it was 1.94 µM; with SNB-75 CNS it was 3.95 µM. In addition, the TGI with SK-MEL-28 melanoma was 10.5 µM; in the assay on SK-OV-3 ovarian it was 44.8 µM; with TK-10 renal it was 29.4 µM; with NCI-H226 lung, 9.47 µM; in the assay with UO-31 renal it was 9.31 µM; with DU-145 prostate it was 23.2 µM. The TGI in the assay on NCI-H460 lung stood at 9.01 µM; in the assay with A498 renal, 14.2 µM; in the assay with SK-MEL-5 melanoma, 5.44 µM; in the assay with SNB-75 CNS, 14 µM.

On to `CC(=O)Oc1ccc(/C=N/NC(N)=S)nc1`, for which the GI50 in the assay with SK-MEL-28 melanoma was 25.5 µM; with SK-OV-3 ovarian, 17.8 µM; in the assay with TK-10 renal, 47.8 µM; in the assay with NCI-H226 lung, 22.1 µM; with UO-31 renal, 3.51 µM; with DU-145 prostate, 2.36 µM. For the same compound, the GI50 is 9.36 µM with NCI-H460 lung, 4.88 µM in the assay with A498 renal, 3.38 µM in the assay on SK-MEL-5 melanoma and 11.7 µM with SNB-75 CNS. For the same compound, the TGI is more than 100 µM in the assay with SK-MEL-28 melanoma; more than 100 µM in the assay with SK-OV-3 ovarian; more than 100 µM with TK-10 renal; 74.3 µM in the assay with NCI-H226 lung; 14.1 µM in the assay with UO-31 renal; 8.38 µM in the assay with DU-145 prostate. The TGI in the assay with NCI-H460 lung is more than 100 µM; in the assay with A498 renal, 58.9 µM; with SK-MEL-5 melanoma, 23.4 µM; in the assay on SNB-75 CNS, more than 100 µM.

For the compound `CC1CCC2N(C1)CC1C3(O)CC45OC6(O)C(O)CCC4(C)C6CCC5C3(O)CC(O)C1(O)C2(C)O` (configuration not stated), the TGI in the assay with SK-MEL-28 melanoma, in the assay with SK-OV-3 ovarian, with TK-10 renal, in the assay on NCI-H226 lung, in the assay with UO-31 renal and in the assay on DU-145 prostate was more than 100 µM throughout. Also, the TGI with NCI-H460 lung, in the assay on A498 renal, in the assay with SK-MEL-5 melanoma and in the assay with SNB-75 CNS was more than 100 µM throughout.

Turning to `O=c1c2ccccc2oc2ccc(OCCCCCCN3CCCCCC3)cc12`, the GI50 with SK-MEL-28 melanoma is 2.01 µM; with SK-OV-3 ovarian, 2.77 µM; in the assay on TK-10 renal, 3.94 µM; with NCI-H226 lung, 4.29 µM; in the assay on UO-31 renal, 2.05 µM; in the assay on DU-145 prostate, 5.89 µM. The GI50 was 3.46 µM with NCI-H460 lung, 2.49 µM in the assay with A498 renal, 1.68 µM in the assay with SK-MEL-5 melanoma and 3.11 µM in the assay with SNB-75 CNS. Besides, the TGI turned out to be 4.58 µM in the assay on SK-MEL-28 melanoma; 8.29 µM in the assay with SK-OV-3 ovarian; 17.3 µM with TK-10 renal; 20.2 µM in the assay on NCI-H226 lung; 6.32 µM in the assay with UO-31 renal; 19 µM in the assay with DU-145 prostate. Also, the TGI in the assay on NCI-H460 lung came to 11.3 µM; with A498 renal, 6.49 µM; in the assay on SK-MEL-5 melanoma it was 3.04 µM; in the assay on SNB-75 CNS, 14.1 µM.

As for `CCOc1cc(-c2ccc[nH]2)[nH]c1/C=C1\N=C(C)C(C(=O)OC)=C1C`, the GI50 in the assay on SK-MEL-28 melanoma is 0.143 µM; in the assay with SK-OV-3 ovarian, 0.183 µM; in the assay with TK-10 renal, 0.0579 µM; in the assay with NCI-H226 lung, 0.0185 µM; in the assay on UO-31 renal, 0.0252 µM; in the assay on DU-145 prostate, 0.0549 µM. The GI50 in the assay on NCI-H460 lung is 0.0256 µM; in the assay on A498 renal, 0.47 µM; in the assay on SK-MEL-5 melanoma, less than 0.0133 µM; with SNB-75 CNS it was 0.0364 µM. Also, the TGI with SK-MEL-28 melanoma was 0.9 µM; with SK-OV-3 ovarian it was 1.57 µM; with TK-10 renal it was 1.5 µM; in the assay with NCI-H226 lung, 0.044 µM; with UO-31 renal, 0.143 µM; with DU-145 prostate it was 1.56 µM. The TGI in the assay on NCI-H460 lung was 1.32 µM; in the assay on A498 renal it was 1.92 µM; with SK-MEL-5 melanoma, 0.0293 µM; with SNB-75 CNS, 0.3 µM.

For the compound `COc1cnc2cc(C(=O)O)c3ccccc3c2c1`, the TGI with SK-MEL-28 melanoma, with SK-OV-3 ovarian, in the assay with TK-10 renal, with NCI-H226 lung, in the assay on UO-31 renal and in the assay on DU-145 prostate was more than 100 µM throughout. Also, the TGI in the assay with NCI-H460 lung, in the assay on A498 renal, in the assay on SK-MEL-5 melanoma and in the assay on SNB-75 CNS was more than 100 µM in each case.

For the compound `COc1ccc(CCc2cc(OC)c(OC)c(OC)c2)cc1`, the TGI with SK-MEL-28 melanoma is more than 61.3 µM; in the assay with SK-OV-3 ovarian it was more than 32.2 µM; with TK-10 renal, more than 97.9 µM; in the assay with NCI-H226 lung it was 7.46 µM; with UO-31 renal it was 83.2 µM; in the assay with DU-145 prostate, 5.62 µM. Further, the TGI in the assay on NCI-H460 lung was 9.82 µM; in the assay on A498 renal it was 8.62 µM; in the assay with SK-MEL-5 melanoma, 12 µM; with SNB-75 CNS, more than 100 µM.

As to `CC1OC(OC2CCC3(C=O)C4CCC5(C)C(C6=CC(=O)OC6)CCC5(O)C4CCC3(O)C2)C(O)C(O)C1O` (configuration not stated), the TGI came to 0.000135 µM in the assay with SK-MEL-28 melanoma; 0.000102 µM in the assay on SK-OV-3 ovarian; 0.000193 µM with TK-10 renal; 0.000111 µM in the assay on NCI-H226 lung; 1.75e-05 µM with DU-145 prostate; 3.81e-05 µM in the assay on NCI-H460 lung. In addition, the TGI came to 0.000154 µM in the assay on A498 renal and 0.36 µM in the assay with SNB-75 CNS.

For `CO[C@@]12[C@@H]3NC3CN1C1=C(C(=O)C(N)=C(C)C1=O)[C@@H]2COC(N)=O` (some centres not stated), the GI50 with SK-MEL-28 melanoma was 1.39 µM; in the assay on TK-10 renal, 1.68 µM; in the assay on NCI-H226 lung it was 0.504 µM; in the assay with UO-31 renal, 0.465 µM. Further, the TGI in the assay with SK-MEL-28 melanoma stood at 5.47 µM; with SK-OV-3 ovarian it was 5.33 µM; in the assay with TK-10 renal, 5.85 µM; in the assay with NCI-H226 lung, 2.78 µM; in the assay on UO-31 renal, 3.04 µM; in the assay on DU-145 prostate, 11.9 µM. Besides, the TGI in the assay with NCI-H460 lung turned out to be 1.44 µM; in the assay on A498 renal it was 1.21 µM; in the assay on SK-MEL-5 melanoma, 0.631 µM.

Take `C#CCN(Cc1ccc2nc(N)[nH]c(=O)c2c1)c1ccc(C(=O)NC(CCC(=O)O)C(=O)O)cc1` (configuration not stated): the TGI in the assay on SK-MEL-28 melanoma, in the assay with SK-OV-3 ovarian, in the assay with TK-10 renal, with NCI-H226 lung, with UO-31 renal and with DU-145 prostate was more than 100 µM each time. For the same compound, the TGI in the assay on NCI-H460 lung, in the assay with A498 renal and with SK-MEL-5 melanoma was more than 100 µM each time.
